Measured values reported in patent US20230102836A1, “Amoebicidal Compositions for Contact Lens Solutions” (University of the West of Scotland, priority 2019, published 2023).
Converted amounts (≈) assume the structure as drawn. “And” between values parts separate entries of the source, which are not always exact repeats. Identical values can stand only once. Like-named read-outs stand apart in the source and are kept apart here. Marks after values point to notes of the source that are not given here.

Columns and labels:
[1] = system: A. castellanii trophozoites; assay: Cytotoxicity assay on trophozoites (resazurin / alamarBlue); type: cell-based, Acanthamoeba castellanii ATCC 50370; settings: for IC50: Acanthamoeba castellanii
Method: (§1) Acanthamoeba castellanii ATCC 50370 trophozoites and cysts were cultured in Peptone Glucose (PG) medium and encystment medium (Chagla A H, Griffiths A J (1974) Microbiology: 85(1): 139-145) respectively at 25° C. Cysts were prepared by incubating trophozoites for 8 days in encystment medium and integrity validated with calcofluor (0.25 μg/ml) assay (Gatti S et al (2010) J. Med. Microbiol.; 59: 1324-1330) or sodium dodecyl sulfate (SDS, 0.5% w/v) disintegration assay (Dudley R et al (2005) Acta Trop.; 9: 100-8) and microscopic observation.
The compounds used in this study all contained alkyl-carbon chains: three APCs [dodecyl-PC (APC12), tetradecyl-PC. (APC14) and hexadecyl-PC (APC16)] (Anatrace) and four QACs [docdecyl-TMAB (QAC12), tetradecyl-TMAB (QAC14), hexadecyl-TMAB (QAC16) and octadecyl-TMAB (QAC18)](Sigma). All were prepared to a stock concentration of 1 mg/ml and diluted as required by the experimental protocol in the cytotoxicity assays. […]
[…] Resazurin (7-Hydroxy-31-phenoxazin-3-one 10-oxide; 5 mg/ml; McBride J et al (2005) J. Clin. Microbiol.; 43: 629-634) and trypan blue (0.4 μg/ml; Mafra C S P et al (2013) Investig. Ophthalmol. Vis. Si.; 54: 6363-6372) were then added to trophozoites and cysts respectively after being exposed to the compounds and the cell viability estimated microscopically and from changes in absorbance (at 595 nm and 570 nm) respectively.
(§2) Efficacy was expressed as a percentage of untreated controls for each drug concentration used and the data used to calculate the IC50. Cell density was estimated using the modified Neubaur hemocytometer and expressed as cells/ml.

[2] = cited from earlier work; for CMC value: APCs
[3] = system: A. castellanii trophozoites; assay: Drug wash-out / alamarBlue-reversion assay, trophozoites; type: cell-based, Acanthamoeba castellanii ATCC 50370
[4] = system: A. castellanii trophozoites; assay: Morphometric analysis of trophozoites; type: cell-based, Acanthamoeba castellanii ATCC 50370
Method: Acanthamoeba trophozoites ([…]) incubated without (FIG. 2A), with QAC18 at 37.5 μg/ml for 1 h at 25° C. (FIG. 2B), and 0.5% SDS for 30 min (FIG. 2C). QAC18 reduced trophozoites sizes from 29.02±0.23 (FIG. 2A) to 7.87 f 0.93 (FIG. 2B) which disintegrated after 30 min treatment with SDS (FIG. 2C).
A. castellanii trophozoites incubated with and without QAC for a duration determined by experimental protocol were examined microscopically and their sizes measured using the Open Laboratory (Improvision) calibration graticule. The mean body sizes were determined.

[5] = system: A. castellanii trophozoites; assay: Combined assay with fixed QAC12 (alamarBlue); type: cell-based, Acanthamoeba castellanii ATCC 50370; settings: for IC50: Acanthamoeba castellanii, 96 h, 96 h at 25° C.
Method: Acanthamoeba trophozoites (10^5 cells/ml. n=5/treatment) treated with 100 μg/ml doubly diluted to 0.06 μg/ml of QAC18 (a,b) or APC16 (c,d) for 96 h at 25° C. […] Similarly. APC16 alone at the same concentration (closed circle, FIG. 6C, FIG. 6D) in combination with QAC12 at 18.75 μg/ml (open squares, d) QAC12 at […] (open squares, FIG. 6C). Data are mean absorbance at 595 nm t SD; n=4 independent experiments performed in triplicates. IC50s were not statistically significant between QAC12 at both concentrations and QAC16 (p>0.05, FIG. 6A, FIG. 6B) but significant with APC16 (p<0.05, FIG. 6C, FIG. 6D).
(§3) For the combined assay, similar concentrations of QAC18 and APC16 were prepared and 18.75 μg/ml and 37.5 μg/ml of QAC12 added (to a final volume of 100 μl) were added to 10^5 cells/mi in a 96-well plate and later incubated at 25° C. for a duration determined by the experimental protocol. Resazurin (7-Hydroxy-31-phenoxazin-3-one 10-oxide; 5 mg/ml; McBride J et al (2005) J. Clin. Microbiol.; 43: 629-634) and trypan blue (0.4 μg/ml; Mafra C S P et al (2013) Investig. Ophthalmol. Vis. Si.; 54: 6363-6372) were then added to trophozoites and cysts respectively after being exposed to the compounds and the cell viability estimated microscopically and from changes in absorbance (at 595 nm and 570 nm) respectively.

A. castellanii cysts [6] = assay: Cytotoxicity assay on cysts (trypan blue); type: cell-based, Acanthamoeba castellanii ATCC 50370; settings: Acanthamoeba castellanii
Method: as §1
The compounds used in this study all contained alkyl-carbon chains: three APCs [dodecyl-PC (APC12), tetradecyl-PC. (APC14) and hexadecyl-PC (APC16)] (Anatrace) and four QACs [docdecyl-TMAB (QAC12), tetradecyl-TMAB (QAC14), hexadecyl-TMAB (QAC16) and octadecyl-TMAB (QAC18)](Sigma). All were prepared to a stock concentration of 1 mg/ml and diluted as required by the experimental protocol in the cytotoxicity assays. A. castellanii trophozoites and cysts (at 10^5 cells/ml) with or without APCs or QACs (concentrations ranging from […] doubly diluted to 0.04 μg/ml to a final volume of 100 μl) in a 96-well plate were incubated at 25° C. for a duration determined by the experimental protocol.
as §3, §2

A. castellanii cysts [7] = assay: Drug wash-out / alamarBlue-reversion assay, cysts; type: cell-based, Acanthamoeba castellanii ATCC 50370; settings: Cysts; also: key: +: indicates cells reverting back to trophozoites after washout; and capable of oxidizing reduced alamarBlue from blue to pink after 8 days; −: indicates cell that did not revert to trophozoites after wash-out and unable to oxidise reduced alamarBlue solution
Method: For the drug kinetic assay, viability was assessed by the linked alamarBlue-reversion assay. Drug-treated cysts were washed with PBS and fresh PG medium was added to allow reversion to trophozoites for 5 days, after which, alamar blue was added and viability estimated as described above.
The cysticidal activity of QAC16 to QAC18 strongly correlated with (a) the alkyl-carbon chain lengths (Table 2) and the duration of drug contact (FIG. 8H). Like trophozoites, death was via leakage judged by 40% and 50% increase in DNA and proteins in the external milieu after 1 h (FIGS. 9A and 9B). To investigate if the cyst were viable, a complementary viability assay that involved, drug washout, incubation in PG medium to allow reversion of viable cyst to trophozoite for 7 days, and estimation of viability using the oxidation of resazurin after 6 h.

[8] = system: Acanthamoeba trophozoites; assay: Checkerboard dilution QAC-APC interaction (Bliss model); type: cell-based, Acanthamoeba castellanii; settings: APC12, APC14, APC16; 96 h at 25° C.
Method: Acanthamoeba trophozoites (10^5 cells/ml. n=5/treatment) treated with 100 μg/ml doubly diluted to 0.06 μg/ml of QAC12 (FIG. 7A), […], QAC16 (FIG. 7C) and QAC18 (FIG. 7D) with APC 12 (i), APCI 4 (ii) and APC16 (iii) for 96 h at 25° C. Cell viability estimated by the alamarBlue assay the dose-response curves used to produce a surface analysis (right panel) and the interaction profile determined using the Bliss model. The degree of interaction characterised by the QCScore heuristic score are produced as heat map (left panel). The colour of each cell in the heatmap and the surface analysis represents the assay response at that dose combination; red to orange, antagonistic: yellow to green, additive and blue, synergistic.
The change in potency between QAC and APC prompted us to used the checkerboard dilution method to identify synergistic interactions (FIG. 7A-D). Three interaction profiles, antagonistic (orange to red), additive (yellow to green) and synergistic (blue) were observed, with optimal synergistic interactions deemed to be significant occurring between 20-38%; (FIG. 7).

[9] = Table 4, read-out: IC50 against Acanthamoeba spp
[10] = Table 5, 72 h and 96 h at 26° C., alamar blue, read-out: IC50 Acanthamoeba trophozoites

## 10-Undecylenyl-1-phosphocholine [APC11UPC]
[1]
  Increase in activity relative to saturated counterpart APC12: 3 fold
[1]; Table 4
  IC50 against Acanthamoeba spp: 3.1 ± 0.4 µg/mL

## CCCCCCCCOP(=O)([O-])OCC[N+](C)(C)C [APC8, Octylphosphocholine]
[1]; [9]
  IC50: 46.4 ± 2.3 µg/mL (≈ 157 µM)

## CCCCCCCCCCOP(=O)([O-])OCC[N+](C)(C)C [APC10, Decylphosphocholine]
[1]; [9]
  IC50: 58 ± 0.9 µg/mL (≈ 179 µM)

## CC(C)CCC(CCC(C)C)OP(=O)([O-])OCC[N+](C)(C)C [APC11PC, 2,8-Dimethyl-5-Nonylphosphocholine]
[1]; [9]
  IC50: > 37.5 µg/mL

## CCCCCCCCCCCCOP(=O)([O-])OCC[N+](C)(C)C [APC12, Dodecylphosphocholine]
[1]; [10]
  IC50: 22.9 µg/mL and 65.2 µM
[2]
  CMC value: 1000.00* μM

## CCCCCCCCCCCCCCOP(=O)([O-])OCC[N+](C)(C)C [APC14, Tetradecylphosphocholine]
[1]; [9]
  IC50: 8.9 ± 0.2 µg/mL (≈ 23.5 µM)
[1]; [10]
  IC50: 8.9 µg/mL and 23.4 µM
[2]
  CMC value: 120.00* μM

## CCCCCCCCCCCCCCCCOP(=O)([O-])OCC[N+](C)(C)C [APC16, Hexadecylphosphocholine]
[1]; [9]
  IC50: 7.9 ± 0.3 µg/mL (≈ 19.4 µM)
[1]; [10]
  IC50: 7.9 µg/mL and 19.4 µM
[3]; 12.5 μg/ml to 100 μg/ml after 96 h
  Effect after APC16 wash-out and incubation in PG medium: amoebostatic
[4]
  Reduction in trophozoite size relative to untreated: 4 fold
[5]; APC16 at 3.12, 4.68, 6.25 and 9.36 μg/ml combined with QAC12, not alone
  Effect after drug wash-out (inability to oxidise resazurin): cytotoxic
[5]; QAC12 at 18.75 μg/ml, read-out: Estimated IC50 of APC16 with QAC12
  IC50: 3.4 µg/mL
[5]; QAC12 at 37.5 μg/ml, read-out: Estimated IC50 of APC16 with QAC12
  IC50: 2.5 µg/mL
[5]; without QAC12, read-out: IC50 of APC16 only control
  IC50: 7.6 µg/mL
[2]
  CMC value: 13.00* μM

## CCCCCCCCCCCCCCCCCCOP(=O)([O-])OCC[N+](C)(C)C [APC18, Octadecylphosphocholine]
[1]; [9]
  IC50: 3 ± 0.3 µg/mL (≈ 6.89 µM)

## CCCCCCCCCCCC[N+](C)(C)CCCCCCCCCCCC.[Br-] [DAB, Didodecyldimethyl ammonium bromide]
[1]; [9]
  IC50: 27 ± 2.2 µg/mL

## CCCCCCCCCCCCCC[N+](C)(C)C.[Br-] [QAC14, tetradecyltrimethyl ammonium bromide]
[1]; Table 2, read-out: IC50 A. castellanii trophozoites
  IC50: 9.07 µg/mL and 27 µM
A. castellanii cysts [6]; Table 2, read-out: IC50 A. castellanii cysts
  IC50: 22.1 µg/mL and 65 µM
A. castellanii cysts [6]; after 96 h, trypan blue viability assay, read-out: Estimated IC50 against matured cysts
  IC50: 15 µg/mL
[3]; 9.375 μg/ml, 1 h
  Back transformation to trophozoites after drug wash-out: +
[3]; 9.375 μg/ml, 24 h
  Back transformation to trophozoites after drug wash-out: +
[3]; 9.375 μg/ml, 48 h
  Back transformation to trophozoites after drug wash-out: +
[3]; 9.375 μg/ml, 72 h
  Back transformation to trophozoites after drug wash-out: +
[3]; 9.375 μg/ml, 96 h
  Back transformation to trophozoites after drug wash-out: +
[3]; 18.75 μg/ml, 1 h
  Back transformation to trophozoites after drug wash-out: +
[3]; 18.75 μg/ml, 24 h
  Back transformation to trophozoites after drug wash-out: +
[3]; 18.75 μg/ml, 48 h
  Back transformation to trophozoites after drug wash-out: +
[3]; 18.75 μg/ml, 72 h
  Back transformation to trophozoites after drug wash-out: +
[3]; 18.75 μg/ml, 96 h
  Back transformation to trophozoites after drug wash-out: +
[3]; 37.50 μg/ml, 1 h
  Back transformation to trophozoites after drug wash-out: +
[3]; 37.50 μg/ml, 24 h
  Back transformation to trophozoites after drug wash-out: −
[3]; 37.50 μg/ml, 48 h
  Back transformation to trophozoites after drug wash-out: −
[3]; 37.50 μg/ml, 72 h
  Back transformation to trophozoites after drug wash-out: −
[3]; 37.50 μg/ml, 96 h
  Back transformation to trophozoites after drug wash-out: −
[3]; after 24 h at 18.75 μg/ml
  Amoebotoxicity after wash-out and replacement with PG medium: amoebotoxic
A. castellanii cysts [7]; 9.375 μg/ml, 24 h
  Back transformation to trophozoites after drug wash-out: +
A. castellanii cysts [7]; 9.375 μg/ml, 48 h
  Back transformation to trophozoites after drug wash-out: +
A. castellanii cysts [7]; 9.375 μg/ml, 72 h
  Back transformation to trophozoites after drug wash-out: +
A. castellanii cysts [7]; 18.75 μg/ml, 24 h
  Back transformation to trophozoites after drug wash-out: +
A. castellanii cysts [7]; 18.75 μg/ml, 48 h
  Back transformation to trophozoites after drug wash-out: +
A. castellanii cysts [7]; 18.75 μg/ml, 72 h
  Back transformation to trophozoites after drug wash-out: +
A. castellanii cysts [7]; 37.50 μg/ml, 24 h
  Back transformation to trophozoites after drug wash-out: +
A. castellanii cysts [7]; 37.50 μg/ml, 48 h
  Back transformation to trophozoites after drug wash-out: +
A. castellanii cysts [7]; 37.50 μg/ml, 72 h
  Back transformation to trophozoites after drug wash-out: +
[8]
  Interaction profile of QAC combined with APCs: less frequent and ‘noisy’
[2]; QACs
  CMC: 2.9 ± 0.1 µM
